Data: patent publication US20240140949A1, “ANTI-CANCER PHARMACEUTICAL COMPOSITION FOR TARGETING HEAT SHOCK PROTEIN 70, CONTAINING INDOLOQUINAZOLIDINE ALKALOID” (SEOUL NATIONAL UNIVERSITY R & DB FOUNDATION, priority 2021, published 2024)

Assays:
lung cancer cell = test: Cancer cell survival inhibitory activity (MTT assay) of EV501 to EV509; type: cell-based; details: 0.5 μM (lowest concentration), MTT assay (FIG. 18)
Description: (§1) The cancer cell lines were seeded in a 96-well plate at a density of 2×10^3 cells per well and cultured for 24 hours to allow the cells to attach. The cells were then treated with diluted drugs in media for 3 days and cell viability was assessed using MTT assay or crystal violet (CB) assay. For the MTT assay, MTT solution dissolved in PBS was added to achieve a final concentration of 500 μg/mL and incubated for 2-4 hours, after which the medium was removed and the formed formazan was dissolved in 100% DMSO, followed by measuring the absorbance at 570 nm. For the CB assay, the cultured cells were fixed with 100% methanol, stained with a 0.025% crystal violet solution, dissolved in 1% SDS solution, and the absorbance was measured at 570 nm. Cell viability was calculated as the percentage of absorbance change in drug-treated group compared to vehicle (DMSO) treated control group.

lung cancer cells = test: Anchorage-independent (soft agar) colony formation; type: cell-based; details: soft agar (FIG. 20)
Description: Before the experiment, a 1% agar solution made with low-melting agar was placed in a 24-well plate and hardened at room temperature to create a bottom agar. The cells were diluted with medium to seed 2×10^3 cells per well in a 24-well plate. Then, it was mixed with a 1% agar solution to create a final 0.4% agar solution, which was then solidified at room temperature in the plate containing the bottom agar. Medium containing the drug was added on top of the cells mixed in the agar and cultured for 1-3 weeks at 37° C. in a 5% CO2 condition, after which the formed colonies were stained with an MTT solution of 250-500 μg/mL and counted. The colony formation inhibitory effect of the drug was calculated by expressing the change in colony numbers in the drug-treated group compared to the vehicle (DMSO) treated control group as a percentage.

[1] = tested on: cancer cells derived from various origins; test: Cell viability (MTT or crystal violet assay) in cancer cell lines of various origins; type: cell-based, human; details: various concentrations, 3 days, cancer cells of various origins (FIG. 2)
From the text: (§2) Human lung cancer cell lines (H1299, H460, A549, H226B, and PC9), breast cancer cell line (MDA-MB-231), liver cancer cell line (Hep3B), kidney cancer cell line (786-0), prostate cancer cell lines (DU145 and PC-3), and mouse lung cancer cell line (Lewis Lung Carcinoma, LLC) were purchased from ATCC (American Type Culture Collection) or obtained from Dr. John V. Heymach of MD Anderson Cancer Center, USA. The human head and neck cancer cell line (UMSCC38) was obtained from Dr. Jeffrey N. Myers (MD Anderson Cancer Center, USA). […]
as §1, with “Cell viability was calculated as the percentage of absorbance change in drug-treated group compared to vehicle (DMSO) treated control group.” left out

H460 xenograft tumors = test: H460 xenograft tumor growth in NOD/SCID mice; type: in vivo, mouse; details: 20 mg/kg orally six times a week, vs control group (FIG. 7)
Description: H460 cells (5×10^6 cells/spot) or lung cancer patient-derived tumors were implanted into the flank of 6-week-old NOD/SCID mice, or LLC-Luc cells (5×10^5 cells/spot) were implanted into the flank of 8-week-old C57BL/6 mice to form tumors. When the tumor volume reached 50-100 mm^3, the mice were divided into control and experimental groups (with at least 6 mice assigned to each group), and the control group was administered with vehicle (10% DMSO and 40% PEG400 solution prepared in sterile distilled water), while the experimental group was administered with EV507 (20 mg/kg) six times a week orally. The major and minor axes of the tumor were measured, and the tumor size was measured at least 3-4 times a week, and the body weight was measured at least once a week to evaluate the toxicity of the drug. Also, the survival of C57BL/6 mice implanted with LLC-Luc cells was monitored to determine the survival curve. The tumor volume was calculated as (width)^2× length×0.5.

[2] = target: T1, Hsp70 protein (full length, N-terminal domain) (Homo sapiens, UniProt P0DMV8); test: Drug affinity responsive target stability (DARTS); type: binding; details: up to 10 μM, proteinase K (FIG. 6)
T1 construct: 35 μg of Hsp70 full length, Hsp70 N-terminal, Hsp70 C-terminal proteins were treated with vehicle (DMSO)
T1 sequence (P0DMV8 2-641): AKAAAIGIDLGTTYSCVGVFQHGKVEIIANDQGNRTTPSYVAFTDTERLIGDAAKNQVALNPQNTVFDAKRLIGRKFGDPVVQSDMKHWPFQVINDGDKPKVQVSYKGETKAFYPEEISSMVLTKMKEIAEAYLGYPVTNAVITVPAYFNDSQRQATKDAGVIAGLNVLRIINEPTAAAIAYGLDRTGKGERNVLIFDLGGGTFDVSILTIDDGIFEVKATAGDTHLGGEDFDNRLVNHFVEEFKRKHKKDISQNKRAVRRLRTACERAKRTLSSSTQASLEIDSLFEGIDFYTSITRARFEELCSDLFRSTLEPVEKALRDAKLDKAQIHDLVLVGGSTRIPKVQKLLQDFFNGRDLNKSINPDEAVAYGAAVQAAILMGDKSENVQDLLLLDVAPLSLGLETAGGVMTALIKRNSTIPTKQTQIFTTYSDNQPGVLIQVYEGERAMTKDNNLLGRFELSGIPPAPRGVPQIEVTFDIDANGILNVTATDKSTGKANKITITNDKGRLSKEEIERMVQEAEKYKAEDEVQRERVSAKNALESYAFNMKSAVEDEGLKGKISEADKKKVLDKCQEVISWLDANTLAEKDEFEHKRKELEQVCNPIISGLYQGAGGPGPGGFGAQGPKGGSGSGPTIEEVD
Description: 35 μg of Hsp70 full length, Hsp70 N-terminal, Hsp70 C-terminal proteins were treated with vehicle (DMSO) or up to 10 μM of EV507 (final DMSO concentration: 1%) at 4° C. for 30 minutes, followed by a treatment with proteinase K (proteinase K:protein=1:100) at room temperature for 15 minutes. The reaction was terminated by adding a 5×SDS-PAGE sample buffer and boiling at 95° C. for 5 minutes, after which electrophoresis was performed with 8% SDS-PAGE. The proteins were transferred to a PVDF membrane, and the Western blot analysis method described above was performed.

[3] = tested on: cancer cell lines of various origins; test: Anchorage-dependent colony formation in cancer cell lines of various origins; type: cell-based, human; details: 50 nM, 2 weeks (FIG. 3)
From the text: as §2, with “USA). Human colon cancer cell lines (HCT116 and HT-29) and glioblastoma cell line (U87MG) were obtained from Professor Sang Kook Lee (Seoul National University College of Pharmacy). The human kidney cancer cell line (Caki-1), and gastric cancer cell line (SNU-638) were purchased from the Korean Cell Line Bank.” for “USA).”
Cancer cell lines were seeded in a 24-well or 6-well plate at 100-250 cells per well and allowed to attach, followed by treatment with drugs diluted in media and cultured for 2-3 weeks. Formed colonies were stained with crystal violet and counted. The drug's colony formation inhibitory effect was calculated as the percentage of colony number change in the drug-treated group compared to the vehicle (DMSO)-treated control group.

C=CCN1c2ccccc2C(=O)N2CCc3c([nH]c4ccc(O)cc34)C21 (stereo not drawn) [EV507]
inhibition at 0.5 µM (lung cancer cell): > 65% | anchorage-independent colony formation (lung cancer cells): effectively inhibited | anti-cancer survival inhibition efficacy [1]: concentration-dependent anti-cancer survival inhibition efficacy | tumor growth (H460 xenograft tumors): significantly inhibited | binding to Hsp70 protein, particularly the N-terminal domain [2]: binds | formation of colonies under anchorage-dependent conditions [3]: significantly inhibited
